The source of these data is patent US7115611B2, “Phenyl derivatives, their manufacture and use as pharmaceutical agents” (Hoffmann-la Roche Inc., priority 2003, dated 2006).

For one series, the target named is T1, PPARδ (Homo sapiens, UniProt Q03181).
T1 construct: PPARδ (aa 139 to 442); made in house; host or cells: E. coli BL21 (pLysS)
T1 sequence (Q03181 139-441 limits assumed): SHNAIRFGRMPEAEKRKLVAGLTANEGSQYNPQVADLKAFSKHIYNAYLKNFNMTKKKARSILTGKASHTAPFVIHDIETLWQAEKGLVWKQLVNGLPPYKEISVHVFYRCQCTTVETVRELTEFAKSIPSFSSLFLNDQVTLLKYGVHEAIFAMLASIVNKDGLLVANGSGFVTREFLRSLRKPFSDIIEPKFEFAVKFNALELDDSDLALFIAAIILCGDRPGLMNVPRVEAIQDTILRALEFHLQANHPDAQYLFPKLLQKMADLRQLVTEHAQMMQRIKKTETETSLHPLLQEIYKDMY
Nature of the series: PPARδ receptor radioligand binding assay (SPA). Particulars: GST-PPARδ-LBD fusion protein on SPA beads. From the text:
(§1) Background information on the performed assays can be found in: Nichols J S et al. “Development of a scintillation proximity assay for peroxisome proliferator-activated receptor gamma ligand binding domain”, (1998) Anal. Biochem. 257:112–119.
(§2) Full-length cDNA clones for humans PPARδ and PPARα and mouse PPARγ were obtained by RT-PCR from human adipose and mouse liver cRNA, respectively, cloned into plasmid vectors and verified by DNA sequencing. Bacterial and mammalian expression vectors were constructed to produce glutathione-s-transferase (GST) and Gal4 DNA binding domain proteins fused to the ligand binding domains (LBD) of PPARδ (aa 139 to 442), PPARγ (aa 174 to 476) and PPARα (aa 167 to 469). To accomplish this, the portions of the cloned sequences encoding the LBDs were amplified from the full-length clones by PCR and then subcloned into the plasmid vectors. Final clones were verified by DNA sequence analysis.
(§3) Induction, expression, and purification of GST-LBD fusion proteins were performed in E. coli strain BL21 (pLysS) cells by standard methods (Ref: Current Protocols in Molecular Biology, Wiley Press, edited by Ausubel et al.).
PPARδ receptor binding was assayed in HNM10 (50 mM Hepes, pH 7.4, 10 mM NaCl, 5 mM MgCl2, 0.15 mg/ml fatty acid-free BSA and 15 mM DTT). For each 96 well reaction a 500 ng equivalent of GST-PPARδ-LBD fusion protein and radioligand, e.g. 20000 dpm {2-methyl-4-[4-methyl-2-(4-trifluoromethyl-phenyl)-thiazol-5-yl-ditritiomethylsulfanyl]-phenoxy}-acetic acid, was bound to 10 μg SPA beads (PharmaciaAmersham) in a final volume of 50 μl by shaking. The resulting slurry was incubated for 1 h at RT and centrifuged for 2 min at 1300 g. […] Radioligand was added and the reaction incubated at RT for 1 h and scintillation proximity counting performed in the presence of test compounds was determined. All binding assays were performed in 96 well plates and the amount of bound ligand was measured on a Packard TopCount using OptiPlates (Packard). […]

A further series concerns the target T2, PPARγ (Mus musculus, UniProt P37238).
T2 construct: PPARγ (aa 174 to 476); made in house; host or cells: E. coli BL21 (pLysS)
T2 sequence (P37238 174-475 isoform P37238-2): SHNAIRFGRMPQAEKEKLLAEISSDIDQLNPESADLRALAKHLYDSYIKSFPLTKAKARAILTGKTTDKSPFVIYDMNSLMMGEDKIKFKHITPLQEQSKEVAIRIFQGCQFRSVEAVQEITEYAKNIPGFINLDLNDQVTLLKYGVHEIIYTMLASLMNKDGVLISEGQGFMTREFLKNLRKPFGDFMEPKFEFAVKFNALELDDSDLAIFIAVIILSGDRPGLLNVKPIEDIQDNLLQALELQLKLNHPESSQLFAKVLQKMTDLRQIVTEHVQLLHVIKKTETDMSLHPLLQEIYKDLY
As to the kind of experiment: PPARγ receptor radioligand binding assay (SPA). The following applies: GST-PPARγ-LBD fusion protein on SPA beads.
Description: as §1, §2, §3
(§4) PPARγ receptor binding was assayed in TKE50 (50 mM Tris-HCl, pH 8, 50 mM KCl, 2 mM EDTA, 0.1 mg/ml fatty acid-free BSA and 10 mM DTT). For each 96 well reaction a 140 ng equivalent of GST-PPARγ-LBD fusion protein was bound to 10 μg SPA beads (PharmaciaAmersham) in a final volume of 50 ul by shaking. The resulting slurry was incubated for 1 h at RT and centrifuged for 2 min at 1300g. The supernatant containing unbound protein was removed and the semidry pellet containing the receptor-coated beads was resolved in 50 ul of TKE. […] All binding assays were performed in 96 well plates and the amount of bound ligand measured on a Packard TopCount using OptiPlates (Packard). Nonspecific binding was determined in the presence of 10^−4 M unlabelled compound. […]

The target of a further series is T3, PPARα (Homo sapiens, UniProt Q07869).
T3 construct: PPARα (aa 167 to 469); made in house; host or cells: E. coli BL21 (pLysS)
T3 sequence (Q07869 167-468 limits assumed): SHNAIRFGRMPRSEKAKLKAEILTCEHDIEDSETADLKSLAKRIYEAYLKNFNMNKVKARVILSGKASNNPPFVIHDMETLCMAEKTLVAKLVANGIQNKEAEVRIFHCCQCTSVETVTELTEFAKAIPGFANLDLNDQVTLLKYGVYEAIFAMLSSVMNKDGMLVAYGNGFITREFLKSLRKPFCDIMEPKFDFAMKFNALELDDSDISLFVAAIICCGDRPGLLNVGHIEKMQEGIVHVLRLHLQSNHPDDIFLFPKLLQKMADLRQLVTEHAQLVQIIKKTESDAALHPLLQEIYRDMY
Nature of the series: PPARα receptor radioligand binding assay (SPA). The following applies: GST-PPARα-LBD fusion protein on SPA beads.
Description: as §1, §2, §3
as §4, with “PPARα receptor” for “PPARγ receptor”, “reaction an” for “reaction a”, “of GST-PPARα-LBD” for “of GST-PPARγ-LBD”, “50 μl” for “50 ul”, “at 1300 g.” for “at 1300g.”

In the case of `Cc1cc(OCc2ccc(-c3cccc(C(F)(F)F)c3)nc2C)ccc1OC(C)(C)C(=O)O` [Example 8, 2-Methyl-2-{2-methyl-4-[2-methyl-6-(3-trifluoromethyl-phenyl)-pyridin-3-ylmethoxy]-phenoxy}-propionic acid], the melting point – broadly, the temperature, or range, at which the solid turns liquid – fell in the range of 105 to 107 °C. In addition, the IC50 (usually the concentration at which inhibition is half-maximal) on PPARδ is 26 nM. In addition, at PPARγ, the IC50 is more than 10000 nM. Further, the IC50 at PPARα was found to be 13 nM.
